Test results: publication PMC9770960 (Science Advances, 2022)
Counter-ions that a name gives are not always drawn.

Biological target: T1, Rec1-resilin (Drosophila melanogaster, UniProt Q9V7U0)
T1 sequence (Q9V7U0 18-322 limits assumed): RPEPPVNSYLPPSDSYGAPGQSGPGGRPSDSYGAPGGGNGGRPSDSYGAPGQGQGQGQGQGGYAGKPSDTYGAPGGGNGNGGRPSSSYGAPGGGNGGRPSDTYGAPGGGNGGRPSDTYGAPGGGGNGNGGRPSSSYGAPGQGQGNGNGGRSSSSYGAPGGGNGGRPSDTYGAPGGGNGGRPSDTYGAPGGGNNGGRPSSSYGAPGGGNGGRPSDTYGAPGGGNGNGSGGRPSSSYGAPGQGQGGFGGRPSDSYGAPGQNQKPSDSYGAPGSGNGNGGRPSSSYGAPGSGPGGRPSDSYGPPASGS
Test: ANS fluorescence titration, Scatchard plot
Assay type: binding

With `O=S(=O)(O)c1cccc2cccc(Nc3ccccc3)c12` [ANS, 8-anilino-1-naphthalenesulfonic acid (ammonium salt)] the Kd was 58.8 µM.
